Data published in US10023570B2 (Array BioPharma, Inc., priority 2015, dated 2018).
Structures can show the parent of a compound that is named as a salt.

Molecular target: human KDR protein in HEK-293 cells (Homo sapiens (Human), UniProt P35968)
Test: KDR Cell Assay (phospho-KDR in HEK-293 cells expressing inducible KDR)
Type: cell-based
Details: pKDR Cell HEK 10% FBS IC50, HEK-293 cells expressing inducible KDR, VEGF stimulated
How it was run: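 HEK-293 cells with inducible human KDR were treated with compound for 1 h in DMEM (0.25% DMSO final), then lysed. Phospho-KDR was quantified by Meso Scale immunoassay, expressed as percent of control, and IC50 taken where a 4-parameter logistic fit crossed 50 POC.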

Chain of human KDR protein in HEK-293 cells (P35968 20-1356): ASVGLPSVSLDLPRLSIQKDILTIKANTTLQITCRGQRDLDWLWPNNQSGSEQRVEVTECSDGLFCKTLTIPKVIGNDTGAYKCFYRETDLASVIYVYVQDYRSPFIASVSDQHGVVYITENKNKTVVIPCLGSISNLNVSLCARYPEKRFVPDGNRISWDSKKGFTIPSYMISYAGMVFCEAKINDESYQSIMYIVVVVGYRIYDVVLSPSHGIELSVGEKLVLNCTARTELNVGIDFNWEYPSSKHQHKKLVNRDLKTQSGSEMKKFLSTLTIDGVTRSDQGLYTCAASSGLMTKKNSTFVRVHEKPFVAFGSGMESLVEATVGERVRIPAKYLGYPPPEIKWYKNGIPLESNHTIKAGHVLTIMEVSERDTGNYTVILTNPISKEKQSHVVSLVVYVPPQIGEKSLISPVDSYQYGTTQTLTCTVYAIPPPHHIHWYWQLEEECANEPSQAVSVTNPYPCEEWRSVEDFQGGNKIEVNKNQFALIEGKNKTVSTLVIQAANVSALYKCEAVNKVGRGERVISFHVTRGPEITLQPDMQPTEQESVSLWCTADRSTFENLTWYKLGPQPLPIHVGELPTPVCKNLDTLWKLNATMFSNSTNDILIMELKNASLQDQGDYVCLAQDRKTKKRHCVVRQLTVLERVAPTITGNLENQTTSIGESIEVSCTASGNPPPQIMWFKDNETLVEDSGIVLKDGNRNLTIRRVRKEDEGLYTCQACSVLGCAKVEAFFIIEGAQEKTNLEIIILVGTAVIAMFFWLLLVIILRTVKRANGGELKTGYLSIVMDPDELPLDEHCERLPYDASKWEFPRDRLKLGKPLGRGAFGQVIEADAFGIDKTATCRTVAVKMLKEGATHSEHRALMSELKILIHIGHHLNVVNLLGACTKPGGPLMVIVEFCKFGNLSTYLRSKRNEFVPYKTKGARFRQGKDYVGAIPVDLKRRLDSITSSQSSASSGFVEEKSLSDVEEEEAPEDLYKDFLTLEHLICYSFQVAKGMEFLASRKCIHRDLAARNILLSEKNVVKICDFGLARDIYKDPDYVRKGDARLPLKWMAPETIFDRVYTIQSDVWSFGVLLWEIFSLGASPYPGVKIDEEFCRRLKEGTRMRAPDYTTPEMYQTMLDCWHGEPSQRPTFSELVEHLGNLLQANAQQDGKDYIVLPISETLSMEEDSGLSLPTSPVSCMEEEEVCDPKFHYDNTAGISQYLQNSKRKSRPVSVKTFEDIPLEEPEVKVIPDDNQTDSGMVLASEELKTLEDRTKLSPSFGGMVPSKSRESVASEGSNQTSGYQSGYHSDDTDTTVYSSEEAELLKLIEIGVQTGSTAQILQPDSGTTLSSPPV

Compound	IC50 [nM]	IC50 (10% FBS) [nM]
Cc1c(CN2CCN(c3ccc(-c4cc(-c5cnn(C)c5)cn5ncc(C#N)c45)cn3)CC2)cnn1C [Example 435, 4-(6-(4-((1,5-dimethyl-1H-pyrazol-4-yl)methyl)piperazin-1-yl)pyridin-3-yl)-6-(1-methyl-1H-pyrazol-4-yl)pyrazolo[1,5-a]pyridine-3-carbonitrile]	1330	–
CC(C)NC(=O)[C@@H]1CN(c2ccc(-c3cc(-c4cnn(C)c4)cn4ncc(C#N)c34)cn2)CCO1 [Example 228, (S)-4-(5-(3-cyano-6-(1-methyl-1H-pyrazol-4-yl)pyrazolo[1,5-a]pyridin-4-yl)pyridin-2-yl)-N-isopropylmorpholine-2-carboxamide]	–	4530
Cn1cc(-c2cc(-c3ccc(N4CCN(C(=O)c5ccccc5N5CCOCC5)CC4)nc3)c3c(C#N)cnn3c2)cn1 [Example 358, 6-(1-methyl-1H-pyrazol-4-yl)-4-(6-(4-(2-morpholinobenzoyl)piperazin-1-yl)pyridin-3-yl)pyrazolo[1,5-a]pyridine-3-carbonitrile bis(2,2,2-trifluoroacetate)]	–	161
Cn1cc(-c2cc(-c3ccc(N4CCC(c5ccc(Cl)cc5)CC4)nc3)c3c(C#N)cnn3c2)cn1 [Example 534, 4-(6-(4-(4-chlorophenyl)piperidin-1-yl)pyridin-3-yl)-6-(1-methyl-1H-pyrazol-4-yl)pyrazolo[1,5-a]pyridine-3-carbonitrile 2,2,2-trifluoroacetate]	12.5	–
Cn1cc(-c2cc(-c3ccc(N4CCN(C(=O)CC5CC5)CC4)nc3)c3c(C#N)cnn3c2)cn1 [Example 77, 4-(6-(4-(2-cyclopropylacetyl)piperazin-1-yl)pyridin-3-yl)-6-(1-methyl-1H-pyrazol-4-yl)pyrazolo[1,5-a]pyridine-3-carbonitrile]	–	605
Cn1ccc(-c2cc(-c3ccc(N4CCN(C(=O)[C@H](O)c5ccccc5)CC4)nc3)c3c(C#N)cnn3c2)n1 [Example 272, (R)-4-(6-(4-(2-hydroxy-2-phenylacetyl)piperazin-1-yl)pyridin-3-yl)-6-(1-methyl-1H-pyrazol-3-yl)pyrazolo[1,5-a]pyridine-3-carbonitrile]	–	575
Cn1ccc(-c2cc(-c3ccc(N4CCN(C(=O)CC(C)(C)C)CC4)cc3)c3c(C#N)cnn3c2)n1 [Example 309, 4-(4-(4-(3,3-dimethylbutanoyl)piperazin-1-yl)phenyl)-6-(1-methyl-1H-pyrazol-3-yl)pyrazolo[1,5-a]pyridine-3-carbonitrile]	–	4780
Cn1cc(-c2cc(-c3ccc(N4CC5(CN(C(=O)OC(C)(C)C)C5)C4)nc3)c3c(C#N)cnn3c2)cn1 [Example 526, tert-butyl 6-(5-(3-cyano-6-(1-methyl-1H-pyrazol-4-yl)pyrazolo[1,5-a]pyridin-4-yl)pyridin-2-yl)-2,6-diazaspiro[3.3]heptane-2-carboxylate]	≥ 5000	–
COc1ccc(CN2CCN(c3ccc(-c4cc(-c5cnn(C)c5)cn5ncc(C#N)c45)cn3)CC2)cc1 [Example 432, 4-(6-(4-(4-methoxybenzyl)piperazin-1-yl)pyridin-3-yl)-6-(1-methyl-1H-pyrazol-4-yl)pyrazolo[1,5-a]pyridine-3-carbonitrile]	263	–
CN(C)CC(=O)N1CCN(c2ccc(-c3cc(-c4cnn(C)c4)cn4ncc(C#N)c34)cc2)CC1 [Example 296, 4-(4-(4-(2-(dimethylamino)acetyl)piperazin-1-yl)phenyl)-6-(1-methyl-1H-pyrazol-4-yl)pyrazolo[1,5-a]pyridine-3-carbonitrile]	–	2350
Cn1cc(-c2cc(-c3ccc(N4CCC5(CN(Cc6ccccc6)C5)C4)nc3)c3c(C#N)cnn3c2)cn1 [Example 558, 4-(6-(2-benzyl-2,6-diazaspiro[3.4]octan-6-yl)pyridin-3-yl)-6-(1-methyl-1H-pyrazol-4-yl)pyrazolo[1,5-a]pyridine-3-carbonitrile]	548	–
Cn1cc(-c2cc(-c3ccc(N4CCN(C(=O)Cc5ccnn5C)CC4)nc3)c3c(C#N)cnn3c2)cn1 [Example 20, 6-(1-methyl-1H-pyrazol-4-yl)-4-(6-(4-(2-(1-methyl-1H-pyrazol-5-yl)acetyl)piperazin-1-yl)pyridin-3-yl)pyrazolo[1,5-a]pyridine-3-carbonitrile]	–	1650
Cn1cc(-c2cc(-c3ccc(N4CCN(C(=O)CC5CCOCC5)CC4)nc3)c3c(C#N)cnn3c2)cn1 [Example 76, 6-(1-methyl-1H-pyrazol-4-yl)-4-(6-(4-(2-(tetrahydro-2H-pyran-4-yl)acetyl)piperazin-1-yl)pyridin-3-yl)pyrazolo[1,5-a]pyridine-3-carbonitrile]	–	1010
Cn1cc(-c2cc(-c3ccc(C4CCN(C(=O)CC(C)(C)C)CC4)cc3)c3c(C#N)cnn3c2)cn1 [Example 302, 4-(4-(1-(3,3-dimethylbutanoyl)piperidin-4-yl)phenyl)-6-(1-methyl-1H-pyrazol-4-yl)pyrazolo[1,5-a]pyridine-3-carbonitrile]	–	2990
CC(C)C(=O)N1CC2(CCN(c3ccc(-c4cc(-c5cnn(C)c5)cn5ncc(C#N)c45)cn3)CC2)C1 [Example 221, 4-(6-(2-isobutyryl-2,7-diazaspiro[3.5]nonan-7-yl)pyridin-3-yl)-6-(1-methyl-1H-pyrazol-4-yl)pyrazolo[1,5-a]pyridine-3-carbonitrile]	–	1660
CO[C@@H](C(=O)N1CCN(c2ncc(-c3cc(-c4cnn(C)c4)cn4ncc(C#N)c34)cn2)CC1)c1ccccc1 [Example 284, (R)-4-(2-(4-(2-methoxy-2-phenylacetyl)piperazin-1-yl)pyrimidin-5-yl)-6-(1-methyl-1H-pyrazol-4-yl)pyrazolo[1,5-a]pyridine-3-carbonitrile]	–	663
Cn1cc(-c2cc(-c3ccc(N4CCC(Nc5ccccc5)CC4)nc3)c3c(C#N)cnn3c2)cn1 [Example 507, 6-(1-methyl-1H-pyrazol-4-yl)-4-(6-(4-(phenylamino)piperidin-1-yl)pyridin-3-yl)pyrazolo[1,5-a]pyridine-3-carbonitrile]	24.9	–
Cn1cc(-c2cc(-c3ccc(N4CCN(C(=O)C5(c6cccc(Cl)c6)CC5)CC4)nc3)c3c(C#N)cnn3c2)cn1 [Example 356, 4-(6-(4-(1-(3-chlorophenyl)cyclopropane-1-carbonyl)piperazin-1-yl)pyridin-3-yl)-6-(1-methyl-1H-pyrazol-4-yl)pyrazolo[1,5-a]pyridine-3-carbonitrile 2,2,2-trifluoroacetate]	–	126
Cn1cc(-c2cc(-c3ccc(N4CCN(C(=O)C5CCCC5)CC4)nc3)c3c(C#N)cnn3c2)cn1 [Example 21, 4-(6-(4-(cyclopentanecarbonyl)piperazin-1-yl)pyridin-3-yl)-6-(1-methyl-1H-pyrazol-4-yl)pyrazolo[1,5-a]pyridine-3-carbonitrile]	–	540
Cn1cc(-c2cc(-c3ccc(N4CC5CC(C4)N5Cc4ccccn4)nc3)c3c(C#N)cnn3c2)cn1 [Example 693, 6-(1-methyl-1H-pyrazol-4-yl)-4-(6-(6-(pyridin-2-ylmethyl)-3,6-diazabicyclo[3.1.1]heptan-3-yl)pyridin-3-yl)pyrazolo[1,5-a]pyridine-3-carbonitrile]	1020	–
Cn1cc(-c2cc(-c3ccc(N4CCC5(CNC5)C4)nc3)c3c(C#N)cnn3c2)cn1 [Example 549, 4-(6-(2,6-diazaspiro[3.4]octan-6-yl)pyridin-3-yl)-6-(1-methyl-1H-pyrazol-4-yl)pyrazolo[1,5-a]pyridine-3-carbonitrile dihydrochloride]	986	–
